Molecular target: T1, human TLR7 (Homo sapiens, UniProt Q9NYK1)
T1 construct: host or cells: HEK293-Blue-hTLR-7 (HEK293)
T1 sequence (Q9NYK1 27-1049): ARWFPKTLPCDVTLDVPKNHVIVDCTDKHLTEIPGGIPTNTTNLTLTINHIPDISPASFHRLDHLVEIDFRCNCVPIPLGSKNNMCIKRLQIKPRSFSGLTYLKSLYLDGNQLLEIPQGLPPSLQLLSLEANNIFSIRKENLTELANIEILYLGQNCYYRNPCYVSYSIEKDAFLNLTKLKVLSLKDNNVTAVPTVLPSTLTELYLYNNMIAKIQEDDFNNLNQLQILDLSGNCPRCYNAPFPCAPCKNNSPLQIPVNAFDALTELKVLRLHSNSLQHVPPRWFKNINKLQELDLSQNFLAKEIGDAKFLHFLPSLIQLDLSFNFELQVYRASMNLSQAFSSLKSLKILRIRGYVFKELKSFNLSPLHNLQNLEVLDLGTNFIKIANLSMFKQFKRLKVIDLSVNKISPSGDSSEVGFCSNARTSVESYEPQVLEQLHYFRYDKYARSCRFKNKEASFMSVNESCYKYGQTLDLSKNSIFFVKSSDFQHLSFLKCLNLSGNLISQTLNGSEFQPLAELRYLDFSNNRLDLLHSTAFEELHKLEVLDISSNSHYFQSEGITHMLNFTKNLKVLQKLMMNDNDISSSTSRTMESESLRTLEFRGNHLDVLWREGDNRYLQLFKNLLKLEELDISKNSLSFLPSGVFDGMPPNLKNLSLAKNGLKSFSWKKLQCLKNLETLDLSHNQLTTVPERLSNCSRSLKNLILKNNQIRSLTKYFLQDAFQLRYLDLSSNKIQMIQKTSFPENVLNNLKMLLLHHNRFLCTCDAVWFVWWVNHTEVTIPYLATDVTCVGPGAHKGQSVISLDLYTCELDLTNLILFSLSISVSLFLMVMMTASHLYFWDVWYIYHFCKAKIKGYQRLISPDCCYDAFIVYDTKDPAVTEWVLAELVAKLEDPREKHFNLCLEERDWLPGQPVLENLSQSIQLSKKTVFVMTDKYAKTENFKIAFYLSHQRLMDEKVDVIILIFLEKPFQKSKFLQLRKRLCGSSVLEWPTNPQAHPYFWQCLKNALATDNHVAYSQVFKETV
Experiment: HEK293-Blue-hTLR-7 cells assay
Type: cell-based
Conditions: HEK293-Blue-hTLR7 cells, R848 stimulation, 20 hrs, SEAP reporter; read-out: HEK/hTLR7 IC50
Protocol: The following tests were carried out in order to determine the activity of the compounds of formula (I) and (Ia) in HEK293-Blue-hTLR-7/8/9 cells assay.
HEK293-Blue-hTLR-7 cells assay:
A stable HEK293-Blue-hTLR-7 cell line was purchased from InvivoGen (Cat. #: hkb-htlr7, San Diego, Calif., USA). These cells were originally designed for studying the stimulation of human TLR7 by monitoring the activation of NE-κB. A SEAP (secreted embryonic alkaline phosphatase) reporter gene was placed under the control of the IFN-β minimal promoter fused to five NE-κB and AP-1-binding sites. The SEAP was induced by activating NE-κB and AP-1 via stimulating HEK-Blue hTLR7 cells with TLR7 ligands. Therefore the reporter expression was declined by TLR7 antagonist under the stimulation of a ligand, such as R848 (Resiquimod), for incubation of 20 hrs. The cell culture supernatant SEAP reporter activity was determined using QUANTI-Blue™ kit (Cat. #: rep-qbl, Invivogen, San Diego, Ca, USA) at a wavelength of 640 nm, a detection medium that turns purple or blue in the presence of alkaline phosphatase.
HEK293-Blue-hTLR7 cells were incubated at a density of 250,000-450,000 cells/mL in a volume of 170 μL in a 96-well plate in Dulbecco's Modified Eagle's medium (DMEM) containing 4.5 g/L glucose, 50 U/mL penicillin, […], […], 2 mM L-glutamine, 10% (v/v) heat-inactivated fetal bovine serum with addition of 20 μL test compound in a serial dilution in the presence of final DMSO at 1% and 10 μL of 20 uM R848 in above DMEM, perform incubation under 37° C. in a CO2 incubator for 20 hrs. Then 20 μL of the supernatant from each well was incubated with 180 μL Quanti-blue substrate solution at 37° C. for 2 hrs and the absorbance was read at 620˜655 nm using a spectrophotometer. The signalling pathway that TLR7 activation leads to downstream NE-κB activation has been widely accepted, and therefore similar reporter assay was modified for evaluating TLR7 antagonist.

Row | SMILES | IC50
1 | Cc1cc(N2CCOC3CN(CC4CN(c5ccc(C#N)c6ncccc56)CC(C)O4)CC32)cc(C)n1 (single isomer, unassigned) [Example 17A] | < 3 nM
2 | Cc1cc(N2CCOC3CN(CC4CN(c5ccc(C#N)c6ncccc56)CC(C)O4)CC32)cc(C)n1 (single isomer, unassigned) [Example 17B] | 11 nM
3 | Cc1cc(N2CC3(CN(C[C@H]4CN(c5ccc(C#N)c6ncccc56)C[C@@H](C)O4)C3)C2)cc(CO)n1 [Example 1, 5-[(2S,6R)-2-[[2-[2-(hydroxymethyl)-6-methyl-4-pyridyl]-2,6-diazaspiro[3.3]heptan-6-yl]methyl]-6-methyl-morpholin-4-yl]quinoline-8-carbonitrile] | 28 nM
4 | C[C@@H]1CN(c2ccc(C#N)c3ncccc23)C[C@H](CN2CC3(C2)CN(c2ccnc(C4CC4)c2)CCO3)O1 [Example 3, 5-[(2S,6R)-2-[[8-(2-cyclopropyl-4-pyridyl)-5-oxa-2,8-diazaspiro[3.5]nonan-2-yl]methyl]-6-methyl-morpholin-4-yl]quinoline-8-carbonitrile] | < 3 nM
5 | Cc1cc(N2CCN(C[C@H]3CN(c4ccc(C#N)c5ncccc45)C[C@@H](C)O3)[C@@H](C)C2)cc(CO)n1 [Example 4A] | 9 nM
6 | Cc1cc(N2CCN(C[C@H]3CN(c4ccc(C#N)c5ncccc45)C[C@@H](C)O3)[C@H](C)C2)cc(CO)n1 [Example 4B] | 10 nM
7 | Cc1cc(NC2CCN(C[C@H]3CN(c4ccc(C#N)c5ncccc45)C[C@@H](C)O3)CC2)cc(CO)n1 [Example 5] | 59 nM
8 | Cc1cc(NC2CCN(C[C@H]3CN(c4ccc(C#N)c5ncccc45)C[C@@H](C)O3)C2)cc(CO)n1 (stereo partly drawn) [Example 6] | 44 nM
9 | Cc1cc(NC2CN(C[C@H]3CN(c4ccc(C#N)c5ncccc45)C[C@@H](C)O3)C2)cc(C)n1 [Example 7] | 26 nM
10 | Cc1cc(N2CCC23CN(C[C@H]2CN(c4ccc(C#N)c5ncccc45)C[C@@H](C)O2)C3)cc(C)n1 [Example 8] | 7 nM
11 | Cc1cc(N2CCC3(CN(C[C@H]4CN(c5ccc(C#N)c6ncccc56)C[C@@H](C)O4)C3)C2)cc(C)n1 [Example 9] | 16 nM
12 | Cc1cc(N2C[C@H]3CN(C[C@H]4CN(c5ccc(C#N)c6ncccc56)C[C@@H](C)O4)C[C@H]3C2)cc(CO)n1 [Example 10] | 57 nM
13 | Cc1cc(N(C)C2CN(C[C@H]3CN(c4ccc(C#N)c5ncccc45)C[C@@H](C)O3)C2)cc(C)n1 [Example 11] | 8 nM
14 | Cc1cc(N2CCC23CN(C[C@H]2CN(c4ccc(C#N)c5ncccc45)C[C@@H](C)O2)C3)cc(CO)n1 [Example 12] | 13 nM
15 | Cc1cc(N2CCOC3(CN(C[C@H]4CN(c5ccc(C#N)c6ncccc56)C[C@@H](C)O4)C3)C2)cc(C)n1 [Example 14] | < 3 nM
16 | Cc1cc(N2CCC23CN(C[C@H]2CN(c4ccc(C#N)c5ncccc45)C[C@@H](C)O2)C3)ccn1 [Example 15] | 7 nM
17 | Cc1cc(N2CCOC3(CN(C[C@H]4CN(c5ccc(C#N)c6ncccc56)C[C@@H](C)O4)C3)C2)ccn1 [Example 16] | < 3 nM
18 | C[C@@H]1CN(c2ccc(C#N)c3ncccc23)C[C@H](CN2CCN(c3ccnc(N)c3)CC2)O1 [Example 19, 5-[(2S,6R)-2-[[4-(2-amino-4-pyridyl)piperazin-1-yl]methyl]-6-methyl-morpholin-4-yl]quinoline-8-carbonitrile] | 6 nM

Row | SMILES | IC50
19 | C[C@@H]1CN(c2ccc(C#N)c3ncccc23)C[C@H](CNC2CCN(c3ccnc(N)c3)CC2)O1 [Example 20, 5-[(2S,6R)-2-[[[1-(2-amino-4-pyridyl)-4-piperidyl]amino]methyl]-6-methyl-morpholin-4-yl]quinoline-8-carbonitrile] | 200 nM
20 | C[C@@H]1CN(c2ccc(C#N)c3ncccc23)C[C@H](CN[C@@H]2CCCN(c3ccnc(N)c3)C2)O1 [Example 21, 5-[(2S,6R)-2-[[[(3R)-1-(2-amino-4-pyridyl)-3-piperidyl]amino]methyl]-6-methyl-morpholin-4-yl]quinoline-8-carbonitrile] | 62 nM
21 | C[C@@H]1CN(c2ccc(C#N)c3ncccc23)C[C@H](CN[C@H]2CCCN(c3ccnc(N)c3)C2)O1 [Example 22] | 37 nM
22 | Cc1cc(N2CCC(NC[C@H]3CN(c4ccc(C#N)c5ncccc45)C[C@@H](C)O3)CC2)cc(CO)n1 [Example 23] | 229 nM
23 | Cc1cc(N2CCC[C@@H](NC[C@H]3CN(c4ccc(C#N)c5ncccc45)C[C@@H](C)O3)C2)cc(CO)n1 [Example 24] | 26 nM
24 | Cc1cc(N2CCC[C@H](NC[C@H]3CN(c4ccc(C#N)c5ncccc45)C[C@@H](C)O3)C2)cc(CO)n1 [Example 25] | 34 nM
25 | Cc1cc(N2CC[C@@H](NC[C@H]3CN(c4ccc(C#N)c5ncccc45)C[C@@H](C)O3)C2)cc(CO)n1 [Example 28] | 122 nM
26 | Cc1cc(N2CC[C@H](NC[C@H]3CN(c4ccc(C#N)c5ncccc45)C[C@@H](C)O3)C2)cc(CO)n1 [Example 29] | 156 nM
27 | Cc1cc(N2CC(NC[C@H]3CN(c4ccc(C#N)c5ncccc45)C[C@@H](C)O3)C2)cc(CO)n1 [Example 30] | 65 nM
28 | Cc1cc(N2CC[C@H](F)[C@H](NC[C@H]3CN(c4ccc(C#N)c5ncccc45)C[C@@H](C)O3)C2)cc(CO)n1 [Example 33] | 12 nM
29 | Cc1cc(N2CC[C@@H](F)[C@H](NC[C@H]3CN(c4ccc(C#N)c5ncccc45)C[C@@H](C)O3)C2)cc(CO)n1 [Example 34] | 12 nM
30 | Cc1cc(N2CCC[C@@H](N(C)C[C@H]3CN(c4ccc(C#N)c5ncccc45)C[C@@H](C)O3)C2)cc(CO)n1 [Example 35] | 17 nM
31 | Cc1cc(N2CC(NC[C@H]3CN(c4ccc(C#N)c5ncccc45)C[C@@H](C)O3)CC(F)(F)C2)cc(CO)n1 (stereo partly drawn) [Example 36] | 17 nM
32 | Cc1cc(N2CC(N(C)C[C@H]3CN(c4ccc(C#N)c5ncccc45)C[C@@H](C)O3)C2)cc(CO)n1 [Example 37] | 34 nM
33 | Cc1cc(N2CCC[C@H](N(C)C[C@H]3CN(c4ccc(C#N)c5ncccc45)C[C@@H](C)O3)C2)cc(CO)n1 [Example 38] | 35 nM
34 | Cc1cc(N2CCN(C[C@H]3CN(c4ccc(C#N)c5ncccc45)C[C@@H](C)O3)CC2)cc(N)n1 [Example 40, 5-[(2S,6R)-2-[[4-(2-amino-6-methyl-4-pyridyl)piperazin-1-yl]methyl]-6-methyl-morpholin-4-yl]quinoline-8-carbonitrile] | 8 nM
35 | CNc1cc(N2CCN(C[C@H]3CN(c4ccc(C#N)c5ncccc45)C[C@@H](C)O3)CC2)cc(C)n1 [Example 42, 5-[(2R,6S)-2-methyl-6-[[4-[2-methyl-6-(methylamino)-4-pyridyl]piperazin-1-yl]methyl]morpholin-4-yl]quinoline-8-carbonitrile] | 13 nM
36 | Cc1cc(C2CCN(C[C@H]3CN(c4ccc(C#N)c5ncccc45)C[C@@H](C)O3)CC2)cc(N)n1 [Example 43, 5-[(2S,6R)-2-[[4-(2-amino-6-methyl-4-pyridyl)-1-piperidyl]methyl]-6-methyl-morpholin-4-yl]quinoline-8-carbonitrile] | 7 nM
